Measurements published in PMC10341573, “Design, Synthesis, and Biological Evaluation of Novel Quinazolin-4(3H)-One-Based Histone Deacetylase 6 (HDAC6) Inhibitors for Anticancer Activity” (International Journal of Molecular Sciences, 2023).
Values joined by “and” are separate entries in the source; they are usually repeats but may differ in a detail not shown here. Equal entries are not always repeated. Where two headings read alike, the source gives them in different places.

What was measured:
A549, MCF-7, and HT-29 = test system: A549, MCF-7, and HT-29; design: method as in doi:10.1016/j.molstruc.2022.132422; conditions: most active in all cell lines examined (A549, MCF-7, HT-29); read-out: IC50, antiproliferative; cited from earlier work
HCT-116 cell line = test system: HCT-116 cell line; design: method as in PMID 33214036; conditions: read-out: IC50, antiproliferative; cited from earlier work
HDAC4 = target: T1, HDAC4 (Homo sapiens, UniProt P56524); assay: HDAC enzyme activity assay (fluorogenic, Boc-Lys(trifluoroacetyl)-AMC), HDAC4; assay type: biochemical; conditions: class IIa HDAC4; mean ± SD, triplicate
T1 construct: catalytic domain of HDAC4 (T648-T1057, full length: UniProt P56524); made in house; host or cells: E. coli BL21(DE3), pET14b vector
T1 sequence (P56524 648-1057): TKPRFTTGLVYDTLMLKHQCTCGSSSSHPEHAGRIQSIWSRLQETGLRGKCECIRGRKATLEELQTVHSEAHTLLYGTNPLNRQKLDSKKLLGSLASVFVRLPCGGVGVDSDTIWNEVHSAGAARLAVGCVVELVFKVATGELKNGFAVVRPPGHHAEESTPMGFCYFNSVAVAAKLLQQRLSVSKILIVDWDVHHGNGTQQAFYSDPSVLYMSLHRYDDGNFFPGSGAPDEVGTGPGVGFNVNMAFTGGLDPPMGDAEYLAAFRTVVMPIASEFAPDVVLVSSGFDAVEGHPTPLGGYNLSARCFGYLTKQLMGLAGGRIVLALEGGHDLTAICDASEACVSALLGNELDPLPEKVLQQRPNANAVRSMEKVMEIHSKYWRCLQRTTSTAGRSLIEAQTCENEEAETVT

B16 = assay: MTT cell proliferation assay, B16; assay type: cell-based, murine; conditions: Mus musculus, read-out: IC50 ± SD B16
HDAC8 = target: T2, HDAC8 (Homo sapiens, UniProt Q9BY41); assay: HDAC enzyme activity assay (fluorogenic, Boc-Lys(trifluoroacetyl)-AMC), HDAC8; assay type: biochemical; conditions: class I HDAC8; mean ± SD, triplicate
T2 construct: codon-optimized full-length HDAC8; made in house; host or cells: E. coli BL21(DE3), pET14b vector
T2 sequence (Q9BY41 1-377): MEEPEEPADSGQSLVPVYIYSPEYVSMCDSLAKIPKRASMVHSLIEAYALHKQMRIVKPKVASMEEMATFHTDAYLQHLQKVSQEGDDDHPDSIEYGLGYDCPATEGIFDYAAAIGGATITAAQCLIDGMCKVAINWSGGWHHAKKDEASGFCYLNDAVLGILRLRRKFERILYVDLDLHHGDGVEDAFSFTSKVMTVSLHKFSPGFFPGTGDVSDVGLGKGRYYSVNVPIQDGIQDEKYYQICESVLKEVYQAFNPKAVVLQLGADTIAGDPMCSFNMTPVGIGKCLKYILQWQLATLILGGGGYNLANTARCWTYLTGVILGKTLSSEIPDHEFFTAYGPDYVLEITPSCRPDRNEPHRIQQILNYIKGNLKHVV

HCT116 = assay: MTT cell proliferation assay, HCT116; assay type: cell-based, human; conditions: Homo sapiens, read-out: IC50 ± SD HCT116
HEK 293 = assay: MTT cell proliferation assay, HEK 293; assay type: cell-based, human; conditions: Homo sapiens, read-out: IC50 ± SD HEK 293
MCF7 = assay: MTT cell proliferation assay, MCF7; assay type: cell-based, human; conditions: Homo sapiens, MCF7, 72 h, read-out: IC50 ± SD MCF7
HDAC6 = target: T3, HDAC6 (Homo sapiens, UniProt Q9UBN7); assay: HDAC enzyme activity assay (fluorogenic, Boc-Lys(acetyl)-AMC), HDAC6; assay type: biochemical; conditions: class IIb HDAC6; mean ± SD, triplicate
T3 construct: Full-length recombinant HDAC6 was purchased from BPS Bioscience; purchased BPS Bioscience
T3 sequence (Q9UBN7 1-1215): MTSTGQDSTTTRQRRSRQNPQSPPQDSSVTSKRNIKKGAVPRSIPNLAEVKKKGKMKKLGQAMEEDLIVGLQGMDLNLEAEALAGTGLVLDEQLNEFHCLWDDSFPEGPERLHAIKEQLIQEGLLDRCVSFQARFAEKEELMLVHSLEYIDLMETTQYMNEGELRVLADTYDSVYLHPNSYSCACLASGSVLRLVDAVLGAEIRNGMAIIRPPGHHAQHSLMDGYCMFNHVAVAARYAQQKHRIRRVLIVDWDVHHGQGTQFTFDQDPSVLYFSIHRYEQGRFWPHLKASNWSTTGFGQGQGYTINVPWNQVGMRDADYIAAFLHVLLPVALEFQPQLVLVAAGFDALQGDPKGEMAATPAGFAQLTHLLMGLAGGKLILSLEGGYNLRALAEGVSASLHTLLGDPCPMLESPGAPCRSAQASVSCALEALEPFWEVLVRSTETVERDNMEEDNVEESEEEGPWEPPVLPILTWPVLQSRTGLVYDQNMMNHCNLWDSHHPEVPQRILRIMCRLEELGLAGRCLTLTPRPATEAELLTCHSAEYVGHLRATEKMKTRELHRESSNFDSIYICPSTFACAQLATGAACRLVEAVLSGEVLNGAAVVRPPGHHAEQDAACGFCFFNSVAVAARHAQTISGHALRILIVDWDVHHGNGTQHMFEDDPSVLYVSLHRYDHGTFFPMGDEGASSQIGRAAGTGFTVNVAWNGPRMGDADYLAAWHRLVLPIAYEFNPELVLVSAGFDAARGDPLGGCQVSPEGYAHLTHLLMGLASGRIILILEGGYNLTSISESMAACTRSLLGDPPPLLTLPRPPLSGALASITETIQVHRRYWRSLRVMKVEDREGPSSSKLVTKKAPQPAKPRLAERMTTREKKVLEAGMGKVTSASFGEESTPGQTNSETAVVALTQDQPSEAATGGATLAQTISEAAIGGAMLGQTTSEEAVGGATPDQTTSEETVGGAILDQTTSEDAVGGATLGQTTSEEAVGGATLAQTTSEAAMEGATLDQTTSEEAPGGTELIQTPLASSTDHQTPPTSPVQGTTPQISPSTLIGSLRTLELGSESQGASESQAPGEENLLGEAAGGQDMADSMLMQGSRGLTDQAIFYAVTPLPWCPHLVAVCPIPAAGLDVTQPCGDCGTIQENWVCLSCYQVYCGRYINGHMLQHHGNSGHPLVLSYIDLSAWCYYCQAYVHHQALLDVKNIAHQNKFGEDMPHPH

HCC827 cells = test system: HCC827 cells; design: method as in PMID 34403956; conditions: strongest against all cancer cell lines, read-out: IC50, antiproliferative; cited from earlier work
HDAC = test system: HDAC; design: method as in PMID 29223029; conditions: quinazoline-4-(3H)-one cap group; read-out: IC50 HDAC inhibitory activity; cited from earlier work
[1] = cited from earlier work
[2] = B16, MTT, 72 h, mean ± SD, triplicate
[3] = HCT-116, MTT, 72 h, mean ± SD, triplicate
[4] = HEK293, MTT, 72 h, mean ± SD, triplicate
[5] = MTT, 72 h, mean ± SD, triplicate

Structure (SMILES): C=CCn1c(SCC(=O)Nc2cccc(C(=O)/C=C/c3ccc(OC)cc3)c2)nc2ccccc2c1=O [A]
- IC50 (A549, MCF-7, and HT-29): 1.16 µM

Structure (SMILES): C/C(=N\NC(=O)c1cc([N+](=O)[O-])ccc1Cl)c1ccc(NC(=O)CSc2nc3ccccc3c(=O)n2-c2ccc(C)cc2)cc1 [B]
- IC50 (HCT-116 cell line): 11.7 µM

Structure (SMILES): Cc1ccccc1-n1c(SCc2ccc(C(=O)NO)cc2)nc2cc(Cl)ccc2c1=O [Compound 5k, 4-(((7-chloro-4-oxo-3-(o-tolyl)-3,4-dihydroquinazolin-2-yl)thio)methyl)-N-hydroxybenzamide]
- IC50 (HDAC4): > 35 µM
- IC50 (B16; [2]): > 50 µM
- melting point: 180 °C and 178 to 180 °C
- IC50 (HDAC8): 1.3 ± 0.1 µM
- IC50 (HCT116; [3]): > 50 µM
- IC50 (HEK 293; [4]): > 50 µM
- IC50 (MCF7; [5]): > 50 µM
- IC50 (HDAC6): 0.41 ± 0.15 µM

Structure (SMILES): Cc1ccc(-n2c(SCc3ccc(C(=O)NO)cc3)nc3cc(Cl)ccc3c2=O)cc1 [Compound 5l, 4-(((7-chloro-4-oxo-3-(p-tolyl)-3,4-dihydroquinazolin-2-yl)thio)methyl)-N-hydroxybenzamide]
- IC50 (HDAC4): 19 µM
- IC50 (B16; [2]): > 50 µM
- melting point: 170 to 175 °C and 173 to 175 °C
- IC50 (HDAC8): 17 µM
- IC50 (HCT116; [3]): > 50 µM
- IC50 (HEK 293; [4]): > 50 µM
- IC50 (MCF7; [5]): > 50 µM
- IC50 (HDAC6): 3.9 ± 0.4 µM

Structure (SMILES): O=C(NO)c1ccc(CSc2nc3cc(Cl)ccc3c(=O)n2-c2ccc(Cl)cc2)cc1 [Compound 5n, 4-(((7-chloro-3-(4-chlorophenyl)-4-oxo-3,4-dihydroquinazolin-2-yl)thio)methyl)-N-hydroxybenzamide]
- IC50 (HDAC4): 6.7 ± 1.1 µM
- IC50 (B16; [2]): 33.9 ± 5.12 µM
- melting point: 230 to 235 °C and 234 to 235 °C
- IC50 (HDAC8): 0.14 ± 0.02 µM
- IC50 (HCT116; [3]): > 50 µM
- IC50 (HEK 293; [4]): > 50 µM
- IC50 (MCF7; [5]): > 50 µM
- IC50 (HDAC6): 0.32 ± 0.03 µM

Structure (SMILES): O=C(c1ccccc1)N(C(=O)c1ccccc1)c1ccc(-c2ccc3ncn(Cc4ccccc4)c(=O)c3c2)cn1 [Compound C]
- IC50 (HCC827 cells): 1.12 µM

Structure (SMILES): COc1cc2ncn(Cc3ccc(C(=O)NO)cc3)c(=O)c2cc1OC [G]
- IC50 (HDAC): 0.37 µM

Structure (SMILES): O=C(NO)c1ccc(CN(c2cnccn2)c2cnccn2)cc1 [KA2507]
- clinical activity ([1]; phase I/II): prolonged dis-ease stabilization in a subset of patients
- toxicity in clinical trial ([1]; phase I/II): no significant toxicities

Structure (SMILES): O=C(CCCCCCNC(=O)c1cnc(N(c2ccccc2)c2ccccc2)nc1)NO [Ricolinostat, reference compound]
- IC50 (B16; B16, 72 h): 89.2 ± 12.5 µM
- IC50 (HCT116; HCT-116, 72 h): 40.5 ± 7.69 µM
- IC50 (HEK 293; HEK293, 72 h): 66.8 ± 10.6 µM
- IC50 (MCF7): > 50 µM
- outcome of combination therapy with bortezomib and dexamethasone ([1]; multiple myeloma): safe, well-tolerated, and active against multiple myeloma
- safety of combination with paclitaxel ([1]; patients with metastatic breast cancer): could be safely combined with paclitaxel
- single-agent therapy outcome ([1]; single agent): neither significant toxicities nor clinical responses
